Measured values from patent EP4038084B1, “LIPOPEPTIDES, PHARMACEUTICAL COMPOSITION, COSMETIC COMPOSITION, AND LIPOPEPTIDES FOR USE AS A DRUG” (priority 2019, dated 2021).
In brackets after ≈: the same amount, converted by molar mass. Entries after “also recorded” stand apart in the source; their conditions may differ. Where a SMILES comes first, the peptide text is derived from it. [ ]: non-standard residue; d: D form. The star is where a group is joined. Palmitoyl = CCCCCCCCCCCCCCCC(=O)*; Myristoyl = CCCCCCCCCCCCCC(=O)*; Lauroyl = CCCCCCCCCCCC(=O)*; Dab = NCC[C@H](N)C(=O)O

Legend:
[1] = test system: Staphylococcus aureus ATCC 29213; conditions: LB medium, 24 h at 30°C, OD 600 nm not greater than 0.05
[2] = test system: Staphylococcus epidermidis ATCC 12228; conditions: LB medium, 24 h at 30°C, OD 600 nm not greater than 0.05
[3] = test system: Klebsiella pneumoniae PCM 1; experiment: Lipopeptide effect on the bacterial growth dynamics; format: cell-based; conditions: OD 600 nm every 60 min for 6 h after 2 h pre-incubation
Protocol: (§1) Typhimurium TT622, and Yersinia enterocolitica PCM 2081. All strains were cultured in LB (lysogenic broth) medium.
(§2) The effect of different concentrations of the test compounds on the bacterial growth was tested on 3 Gram-negative bacterial strains: Klebsiella pneumoniae PCM 1, Pseudomonas aeruginosa PAO1 PCM 499, and Yersinia enterocolitica PCM 2081 and one Gram-positive strain: Staphylococcus aureus ATCC 29213. The experiment was carried out in a similar way to the MIC determination, but in this case the diluted overnight cultures were pre-incubated for 2 h before adding diluted lipopeptide preparations. The bacterial growth was then monitored by measuring the optical density of the culture at 600 nm every 60 min for 6 h. Data were obtained from three independent experiments. The measurement results are shown as graphs in Figs. 1-3.

[4] = test system: Pseudomonas aeruginosa PAO1 PCM 499; experiment: as above; format: cell-based; conditions: OD 600 nm every 60 min for 6 h after 2 h pre-incubation
Protocol: as §1, §2

[5] = test system: Yersinia enterocolitica PCM 2081; experiment: as above; format: cell-based; conditions: OD 600 nm every 60 min for 6 h after 2 h pre-incubation
Protocol: as §1, §2

[6] = test system: Sheep red blood cells; format: cell-based
Protocol: (§3) Defibrinated sheep or horse blood was washed three times in PBS buffer (137 mM NaCl, 2.7 mM KCl, 8 mM Na2HPO4, 2 mM KH2PO4, pH 7.4) and diluted to obtain 2% (v/v) preparation of red blood cells (RBC). […] The experiment was performed by adding 190 µL of 2% RBC preparation to 10 µL of each of the prepared lipopeptide dilutions in the wells of a 96-well titer plate. As a positive control, Triton X-100 (2% final concentration) was used, instead of test compound preparations, and PBS buffer was used as a negative control. The samples were then incubated for 30 min at 30°C with shaking. After this time, the plate was centrifuged (1200 rpm) and 150 µL of the supernatant was transferred per well to another titration plate and the absorbance at 415 nm was measured using TECAN Sunrise plate reader. Based on the obtained results, the concentration of lipopeptides was determined at which up to 50% of hemolysis occurs in comparison with the positive control (HC50). Data were obtained from three independent experiments. The measurement results are shown in Table 3 and in the form of graphs in Figs. 7 and 8.

[7] = test system: Horse red blood cells; format: cell-based
Protocol: as §3

[8] = test system: Klebsiella pneumoniae PCM 1; format: cell-based; conditions: LB medium, 24 h at 30°C, OD 600 nm not greater than 0.05
Protocol: as §1
(§4) The test compounds were dissolved in water. […] Data were obtained from three independent experiments.

[9] = test system: Escherichia coli ST2-8624 O157:H7; format: cell-based; conditions: LB medium, 24 h at 30°C, OD 600 nm not greater than 0.05
Protocol: as §1, §4

[10] = test system: Pseudomonas aeruginosa PAO1 PCM 499; format: cell-based; conditions: LB medium, 24 h at 30°C, OD 600 nm not greater than 0.05
Protocol: as §1, §4

[11] = test system: Enterococcus faecalis ATCC 14506; format: cell-based; conditions: LB medium, 24 h at 30°C, OD 600 nm not greater than 0.05
Protocol: as §1, §4

[12] = test system: Yersinia enterocolitica PCM 2081; conditions: LB medium, 24 h at 30°C, OD 600 nm not greater than 0.05
Description: All bacterial strains were obtained from the Polish Collection of Microorganisms (PCM) or the American Type Culture Collection (ATCC). Gram-positive bacteria strains: Staphylococcus aureus ATCC 29213, Staphylococcus epidermidis ATCC 12228, and Enterococcus faecalis ATCC 14506. Gram-negative bacteria strains: Escherichia coli ST2-8624 O157:H7, Pseudomonas aeruginosa PAO1 PCM 499, Klebsiella pneumoniae PCM 1, Salmonella sv. Typhimurium TT622, and Yersinia enterocolitica PCM 2081. All strains were cultured in LB (lysogenic broth) medium.
10 mL of LB medium was inoculated with material from a single colony and cultured at 30°C overnight with shaking. Thereafter, the optical density of the overnight cultures (at 600 nm) was adjusted to 0.05 by dilution in a fresh portion of LB medium. The test compounds were dissolved in water. Serial dilutions of compounds were prepared in LB medium ranging from 5 to 50 µg/mL (final concentrations). The experiment was performed by adding 100 µL of each of the prepared dilutions to 100 µL of the diluted overnight bacterial culture in the wells of a 96-well titration plate. […] Optical density measurements were performed using TECAN Sunrise plate reader. Data were obtained from three independent experiments.

[13] = test system: Salmonella sv. Typhimurium TT622; experiment: Determination of the minimal inhibitory concentration (MIC); format: cell-based; conditions: LB medium, 24 h at 30°C, OD 600 nm not greater than 0.05
Protocol: as §1, §4

Structure (SMILES)	MIC [1] [µg/mL]	MIC [2] [µg/mL]	effect on the bacterial growth dynamics [3]	effect on the bacterial growth dynamics [4]	effect on the bacterial growth dynamics [5]	HC50 [6] [µg/mL < HC50< 40 µg/mL]	HC50 [7] [µg/mL < HC50< 40 µg/mL]	MIC [8]	MIC [9]	MIC [10]	MIC [11]	MIC [12] [µg/mL]	MIC [13]
CCCCCCCCCCCC(=O)N[C@H](Cc1ccccc1)C(=O)N[C@@H](CCN)C(=O)N[C@@H](CCN)C(=O)N[C@@H](CC(C)C)C(N)=O [C12-fXXL, CH3(CH2)10C(O)-D-Phe-Dab-Dab-Leu-NH2] (Lauroyl-[dF][Dab][Dab]L-NH2)	5 (≈ 7.58 µM)	5 (≈ 7.58 µM)	slowed down the bacterial growth dynamics at much lower concentrations than that of the C16-fXXL lipopeptide	slowed down the bacterial growth dynamics at much lower concentrations than that of the C16-fXXL lipopeptide	slowed down the bacterial growth dynamics at much lower concentrations than that of the C16-fXXL lipopeptide	30	30	20 µg/mL (≈ 30.3 µM)	50 µg/mL (≈ 75.8 µM)	20 µg/mL (≈ 30.3 µM)	30 µg/mL (≈ 45.5 µM)	20 (≈ 30.3 µM)	n.d. (n.d. = not determined, i.e., the MIC value was greater than 50 µg/mL)
CCCCCCCCCCCCCCCC(=O)N[C@H](Cc1ccccc1)C(=O)N[C@@H](CCN)C(=O)N[C@@H](CCN)C(=O)N[C@@H](CC(C)C)C(N)=O [C16-fXXL, CH3(CH2)14C(O)-D-Phe-Dab-Dab-Leu-NH2, reference compound] (Palmitoyl-[dF][Dab][Dab]L-NH2)	5 (≈ 6.98 µM)	5 (≈ 6.98 µM)	–	–	–	30	30	n.d. (n.d. = not determined, i.e., the MIC value was greater than 50 µg/mL)	no activity	n.d. (n.d. = not determined, i.e., the MIC value was greater than 50 µg/mL)	n.d. (n.d. = not determined, i.e., the MIC value was greater than 50 µg/mL)	30 (≈ 41.9 µM)	n.d. (n.d. = not determined, i.e., the MIC value was greater than 50 µg/mL)
CCCCCCCCCCCCCC(=O)N[C@H](Cc1ccccc1)C(=O)N[C@@H](CCN)C(=O)N[C@@H](CCN)C(=O)N[C@@H](CC(C)C)C(N)=O [C14-fXXL, CH3(CH2)12C(O)-D-Phe-Dab-Dab-Leu-NH2] (Myristoyl-[dF][Dab][Dab]L-NH2)	5 (≈ 7.27 µM)	5 (≈ 7.27 µM)	slowed down the bacterial growth dynamics at much lower concentrations than that of the C16-fXXL lipopeptide	equally strong effect of slowing down the Gram-negative bacterial growth dynamics; also recorded: slowed down the bacterial growth dynamics at much lower concentrations than that of the C16-fXXL lipopeptide	slowed down the bacterial growth dynamics at much lower concentrations than that of the C16-fXXL lipopeptide	30	30	20 µg/mL (≈ 29.1 µM)	n.d. (n.d. = not determined, i.e., the MIC value was greater than 50 µg/mL)	20 µg/mL (≈ 29.1 µM)	30 µg/mL (≈ 43.6 µM)	10 (≈ 14.5 µM)	n.d. (n.d. = not determined, i.e., the MIC value was greater than 50 µg/mL)
